According to the NIST ThermoML archive (doi:10.1021/je0602519):
Numbers after ± are expanded uncertainties.

Experiments:
[1] = Liquid; for viscosity / mass density: 101 kPa; for mass density: Pycnometric method; for speed of sound: 101.33 kPa, Frequency=2 MHz, Linear variable-path acoustic interferometer
[2] = xn = mol fraction of the nth substance listed; conditions: 101 kPa, Liquid, x1 = 1; for speed of sound: Frequency=2 MHz, Linear variable-path acoustic interferometer; for mass density: Pycnometric method

SMILES | viscosity ([1]; 303.15 K) [mPa·s] | mass density ([1]; 303.15 K) [kg/m3] | speed of sound ([1]; 303.15 K) [m/s] | viscosity ([1]; 313.15 K) [mPa·s] | mass density ([1]; 313.15 K) [kg/m3] | speed of sound ([1]; 313.15 K) [m/s] | speed of sound ([2]; 303.15 K) [m/s] | mass density ([2]; 303.15 K) [kg/m3] | viscosity ([2]; 303.15 K) [mPa·s] | speed of sound ([2]; 313.15 K) [m/s] | mass density ([2]; 313.15 K) [kg/m3] | viscosity ([2]; 313.15 K) [mPa·s]
Cc1ccccc1 [toluene] | 0.525 ± 0.029 | 856.62 ± 0.31 | 1289 ± 3 | 0.471 ± 0.027 | 847.03 ± 0.32 | 1256 ± 2 |  |  |  |  |  | 
CCCCCCCO [heptan-1-ol] | 5.048 ± 0.22 | 814.89 ± 0.29 | 1313 ± 3 | 3.712 ± 0.17 | 807.68 ± 0.3 | 1279 ± 3 |  |  |  |  |  | 
CCCCCCCCO [octan-1-ol] | 6.433 ± 0.26 | 818.38 ± 0.29 | 1334 ± 3 | 4.603 ± 0.2 | 811.05 ± 0.3 | 1304 ± 3 |  |  |  |  |  | 
Cc1ccccc1 [toluene] + CCCCCCCCCCO |  |  |  |  |  |  | 1289 ± 3 | 856.62 ± 0.31 | 0.525 ± 0.029 | 1256 ± 2 | 847.03 ± 0.32 | 0.471 ± 0.027
CCCCCCCCCCO [decan-1-ol] | 9.716 ± 0.37 | 822.87 ± 0.29 | 1366 ± 3 | 6.82 ± 0.28 | 815.97 ± 0.31 | 1334 ± 3 |  |  |  |  |  | 
Cc1ccccc1 [toluene] + CCCCCCCO |  |  |  |  |  |  | 1289 ± 3 | 856.62 ± 0.31 | 0.525 ± 0.029 | 1256 ± 2 | 847.03 ± 0.32 | 0.471 ± 0.027
Cc1ccccc1 [toluene] + CCCCCCCCO |  |  |  |  |  |  | 1289 ± 3 | 856.62 ± 0.31 | 0.525 ± 0.029 | 1256 ± 2 | 847.03 ± 0.32 | 0.471 ± 0.027
